Consider 26 compounds from patent US20050026911A1, “Benzotriazapinone salts and methods for using same” (priority 2003, published 2005).

In this experiment the target is T1, gastrin (CCK2) receptors (Rattus norvegicus, UniProt P30553).
T1 construct: The stomach was excised and flushed with ca. 1 ml of unbuffered physiological saline solution; from tissue; host or cells: isolated whole stomach of immature rats (ca. 21 days old)
T1 sequence (P30553 1-452): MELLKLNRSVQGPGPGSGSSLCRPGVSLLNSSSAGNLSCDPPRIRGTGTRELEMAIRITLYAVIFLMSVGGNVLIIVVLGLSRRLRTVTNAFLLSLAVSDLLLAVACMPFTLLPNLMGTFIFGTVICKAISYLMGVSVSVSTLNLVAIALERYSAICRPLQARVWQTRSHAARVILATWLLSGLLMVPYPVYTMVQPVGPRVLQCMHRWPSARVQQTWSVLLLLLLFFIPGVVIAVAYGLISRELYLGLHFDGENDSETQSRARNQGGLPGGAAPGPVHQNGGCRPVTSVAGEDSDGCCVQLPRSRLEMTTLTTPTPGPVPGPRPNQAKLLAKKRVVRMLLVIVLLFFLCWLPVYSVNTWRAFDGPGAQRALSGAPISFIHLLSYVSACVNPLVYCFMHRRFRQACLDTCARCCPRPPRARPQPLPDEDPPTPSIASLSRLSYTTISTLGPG
The experiment can be described thus: gastrin (CCK2) antagonist activity in an immature rat stomach assay. The settings on record: pentagastrin dose-response curves, acid secretion, read-out: pKB rat stomach (converted). A digest of the protocol:
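Pentagastrin dose-response curves were run cumulatively 60 min after drug went into the serosal bath, itself after 120 min stabilisation. Preparation: perfused stomach from rats ca. 21 days old (33-50 g), with unbuffered saline under 100% O2 at 1 ml min^−1 and perfusate pH monitored.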
`CNc1cc(NC)cc(NC(=O)CN2N=C(C3CCCCC3)c3ccccc3N(CC(=O)C(C)(C)C)C2=O)c1` [Example 104, N-(3,5-Bis-methylamino-phenyl)-2-[5-cyclohexyl-1-(3,3-dimethyl-2-oxo-butyl)-2-oxo-1,2-dihydro-3H-1,3,4-benzotriazepin-3-yl]-acetamide]: the Kb is 44.7 nM.
For `CC(C)(C)C(=O)CN1C(=O)N(CC(=O)Nc2ccc3cnn(CC(=O)O)c3c2)N=C(C2CCCCC2)c2ccccc21` [Example 99, (6-{2-[5-Cyclohexyl-1-(3,3-dimethyl-2-oxo-butyl)-2-oxo-1,2-dihydro-3H-1,3,4-benzotriazepin-3-yl]-acetylamino}-indazol-1-yl)-acetic acid] the value was 14.1 nM; for `CC(C)(C)C(=O)CN1C(=O)N(CC(=O)Nc2cccc3c2ccn3CC(=O)O)N=C(C2CCCCC2)c2ccccc21` [Example 127, (4-{2-[5-Cyclohexyl-1-(3,3-dimethyl-2-oxo-butyl)-2-oxo-1,2-dihydro-3H-1,3,4-benzotriazepin-3-yl]-acetylamino}-indol-1-yl)-acetic acid], 2.09 nM.
The same measure for `CC(C)(C)C(=O)CN1C(=O)N(CC(=O)Nc2cccc(-c3cccc(C(=O)O)c3)c2)N=C(C2CCCCC2)c2ccccc21` [Example 151, 3′-{2-[5-Cyclohexyl-1-(3,3-dimethyl-2-oxo-butyl)-2-oxo-1,2-dihydro-3H-1,3,4-benzotriazepin-3-yl]-acetylamino}-biphenyl-3-carboxylic acid]: 11.5 nM; for `CC(C)(C)C(=O)CN1C(=O)N(CC(=O)Nc2cccc(SCC(=O)O)c2)N=C(C2CCCCC2)c2ccccc21` [Example 38, (3-{2-[5-Cyclohexyl-1-(3,3-dimethyl-2-oxo-butyl)-2-oxo-1,2-dihydro-3H-1,3,4-benzotriazepin-3-yl]-acetylamino}-phenylsulfanyl)-acetic acid]: 6.61 nM; for `CC(C)(C)C(=O)CN1C(=O)N(CC(=O)Nc2cccc3c2cnn3CC(=O)O)N=C(C2CCCCC2)c2ccccc21` [Example 130, (4-{2-[5-Cyclohexyl-1-(3,3-dimethyl-2-oxo-butyl)-2-oxo-1,2-dihydro-3H-1,3,4-benzotriazepin-3-yl]-acetylamino}-indazol-1-yl)-acetic acid]: 44.7 nM.
For `CC(C)(C)C(=O)CN1C(=O)N(CC(=O)Nc2cccc(C(=O)O)c2)N=C(C2CCCC2)c2ccccc21` [Example 9, 3-{2-[5-Cyclopentyl-1-(3,3-dimethyl-2-oxo-butyl)-2-oxo-1,2-dihydro-3H-1,3,4-benzotriazepin-3-yl]-acetylamino}-benzoic acid] the value was 75.9 nM; for `CNc1cc(NC(=O)CN2N=C(C3CCCCC3)c3ccccc3N(CC(=O)C(C)(C)C)C2=O)ccc1OC` [Example 105, 2-[5-Cyclohexyl-1-(3,3-dimethyl-2-oxo-butyl)-2-oxo-1,2-dihydro-3H-1,3,4-benzotriazepin-3-yl]-N-(4-methoxy-3-methylamino-phenyl)-acetamide], 27.5 nM.
`CNc1cc(NC(=O)CN2N=C(C3CCCCC3)c3ccccc3N(CC(O)C(C)(C)C)C2=O)cc(C(=O)OC)c1` (centres unmarked) [Example 78, 3-{2-[5-Cyclohexyl-1 (−2-hydroxy-3,3-dimethyl-butyl)-2-oxo-1,2-dihydro-3H-1,3,4-benzotriazepin-3-yl]-acetylamino}-5-methylamino-benzoic acid methyl ester]: the Kb is 324 nM.
For `CC(C)(C)C(=O)CN1C(=O)N(CC(=O)Nc2cccc(O)c2)N=C(C2CCCCC2)c2ccccc21` [Example 84, 2-[5-Cyclohexyl-1-(3,3-dimethyl-2-oxo-butyl)-2-oxo-1,2-dihydro-3H-1,3,4-benzotriazepin-3-yl]-N-(3-hydroxy-phenyl)-acetamide] the value was 27.5 nM; for `CNc1cccc(NC(=O)NCN2N=C(c3ccccn3)c3ccccc3N(CC(=O)C(C)(C)C)C2=O)c1` [Example 8, 1-[1-(3,3-Dimethyl-2-oxo-butyl)-2-oxo-5-pyridin-2-yl-1,2-dihydro-3H-1,3,4-benzotriazepin-3-ylmethyl]-3-(3-methylamino-phenyl)-urea], 263 nM; for `CNc1cccc(NC(=O)CN2N=C(C3CCCCC3)c3ccccc3N(CC(=O)C3CCCC3)C2=O)c1` [Example 57, 2-[5-Cyclohexyl-1-(2-cyclopentyl-2-oxo-ethyl)-2-oxo-1,2-dihydro-3H-1,3,4-benzotriazepin-3-yl]-N-(3-methylaminophenyl)-acetamide], 1.17 nM.
As for `CC(Nc1cccc(NC(=O)CN2N=C(C3CCCCC3)c3ccccc3N(CC(=O)C(C)(C)C)C2=O)c1)C(=O)O` (racemic) [Example 75, 2-(3{2-[5-Cyclohexyl-1-(3,3-dimethyl-2-oxo-butyl)-2-oxo-1,2-dihydro-3H-1,3,4-benzotriazepin-3-yl]-acetylamino}-phenylamino)-propionic acid], the Kb was 209 nM.
As to `CNc1cccc(NC(=O)CN2N=C(c3ccccn3)c3ccccc3N(CC(=O)c3ccccc3C)C2=O)c1` [Example 7, N-(3-Methylamino-phenyl)-2-[2-oxo-1-(2-oxo-2-o-tolyl-ethyl)-5-pyridin-2-yl-1,2-dihydro-3H-1,3,4-benzotriazepin-3-yl]-acetamide], the Kb is 50.1 nM.
`CC(C)(C)C(=O)CN1C(=O)N(CC(=O)Nc2ccccn2)N=C(C2CCCCC2)c2ccccc21` [Example 63, 2-[5-Cyclohexyl-1-(3,3-dimethyl-2-oxo-butyl)-2-oxo-1,2-dihydro-3H-1,3,4-benzotriazepin-3-yl]-N-pyridin-2-yl-acetamide]: the Kb is 661 nM.
Take `CC(C)(C)C(=O)CN1C(=O)N(CC(=O)Nc2cccc(NS(C)(=O)=O)c2)N=C(C2CCCCC2)c2ccccc21` [Example 26, 2-[5-Cyclohexyl-1-(3,3-dimethyl-2-oxo-butyl)-2-oxo-1,2-dihydro-3H-1,3,4-benzotriazepin-3-yl]-N-(3-methanesulfonylamino-phenyl)-acetamide]: the Kb was 457 nM.
The same measure for `O=C(O)CCCc1cccc(NC(=O)CN2N=C(C3CCCCC3)c3ccccc3N(CC(=O)C3CCCC3)C2=O)c1` [Example 159]: 1.26 nM.
The same measure for `CC(=O)N/C(=C\c1cccc(NC(=O)CN2N=C(C3CCCCC3)c3ccccc3N(CC(=O)C(C)(C)C)C2=O)c1)C(=O)O` [Example 155, 2-Acetylamino-3-(3-{2-[5-cyclohexyl-1-(3,3-dimethyl-2-oxo-butyl)-2-oxo-1,2-dihydro-3H-1,3,4-benzotriazepin-3-yl]-acetylamino}-phenyl)-acrylic acid]: 70.8 nM; for `CC(C)(C)C(=O)CN1C(=O)N(CC(=O)Nc2ccc3ncn(CC(=O)O)c3c2)N=C(C2CCCCC2)c2ccccc21` [Example 94, (6-{2-[5-Cyclohexyl-1-(3,3-dimethyl-2-oxo-butyl)-2-oxo-1,2-dihydro-3H-1,3,4-benzotriazepin-3-yl]-acetylamino)-benzimidazol-1-yl)-acetic acid]: 155 nM.
For the compound `CNc1cccc(NC(=O)CN2N=C(c3ccccn3)c3ccccc3N(CC(=O)C(C)(C)C)C2=O)c1` [Example 5, 2-[1-(3,3-Dimethyl-2-oxo-butyl)-2-oxo-5-pyridin-2-yl-1,2-dihydro-3H-1,3,4-benzotriazepin-3-yl]-N-(3-methylamino-phenyl)-acetamide], the Kb was 240 nM.
On to `CNc1cccc(NC(=O)CN2N=C(c3ccccc3)c3ccccc3N(CC(=O)C(C)(C)C)C2=O)c1` [Example 4, 2-[1-(3,3-Dimethyl-2-oxo-butyl)-2-oxo-5-phenyl-1,2-dihydro-3H-1,3,4-benzotriazepin-3-yl]-N-(3-methylamino-phenyl)-acetamide], for which the Kb is 132 nM.
The same measure for `CC(C)(C)C(=O)CN1C(=O)N(CC(=O)Nc2cccc(SCc3nn[nH]n3)c2)N=C(C2CCCCC2)c2ccccc21` [Example 86, 2-[5-Cyclohexyl-1-(3,3-dimethyl-2-oxo-butyl)-2-oxo-1,2-dihydro-3H-1,3,4-benzotriazepin-3-yl]-N-[3-(4H-tetrazol-5-ylmethylsutfanyl)-phenyl]-acetamide]: 3.39 nM.
Turning to `CC(C)(C)C(=O)CN1C(=O)N(CC(=O)Nc2ccc3c(ccn3CC(=O)O)c2)N=C(C2CCCCC2)c2ccccc21` [Example 117, (5-{2-[5-Cyclohexyl-1-(3,3-dimethyl-2-oxo-butyl)-2-oxo-1,2-dihydro-3H-1,3,4-benzotriazepin-3-yl]-acetylamino}-indol-1-yl)-acetic acid], the Kb was 27.5 nM.
For `CC(C)CCN1C(=O)N(CC(=O)Nc2cccc(C(=O)O)c2)N=C(C2CCCCC2)c2ccccc21` [Example 16, 3-{2-[5-Cyclohexyl-1-(3-methyl-butyl)-2-oxo-1,2-dihydro-3H-1,3,4-benzotriazepin-3-yl]-acetylamino}-benzoic acid] the value was 42.7 nM.
Turning to `COC(=O)c1cccc(NC(=O)CN2N=C(C3CCCCC3)c3ccccc3N(CC(=O)C(C)(C)C)C2=O)c1` [Example 1, 3-{2-[5-Cyclohexyl-1-(3,3-dimethyl-2-oxo-butyl)-2-oxo-1,2-dihydro-3H-1,3,4-benzotriazepin-3-yl]-acetylamino}-benzoic acid methyl ester], the Kb was 2.82 nM.
Turning to `CC1(C(=O)CN2C(=O)N(CC(=O)Nc3cccc(SCC(=O)O)c3)N=C(C3CCCCC3)c3ccccc32)CCCCC1` [Example 134, [3-(2-{5-Cyclohexyl-1-[2-(1-methyl-cyclohexyl)-2-oxo-ethyl]-2-oxo-1,2-dihydro-3H-1,3,4-benzotriazepin-3-yl}-acetylamino)-phenylsulfanyl]-acetic acid], the Kb is 17.4 nM.
